These results are taken from patent US6825209B2, “Compounds having unique CB1 receptor binding selectivity and methods for their production and use” (Research Triangle Institute, priority 2002, dated 2004).

Assay [1] concerns the target T1, G-protein-linked cannabinoid receptors (Rattus norvegicus, UniProt P20272).
T1 construct: tissue Charles River or Pel-Freez Biologicals; host or cells: whole rat brain crude membrane homogenate
Briefly: GTP-γ-[35S] binding in whole rat brain. Format: biochemical. As to conditions: for Emax: read-out: Emax, GTP-γ-[35S] in Whole Rat Brain; for pEC50: inverse agonist/antagonist activity. (In general: Binding of GTPγS marks nucleotide exchange on a G protein.)

The target in the next assay is T2, human CB1 receptor (Homo sapiens, UniProt P21554).
T2 construct: expressed in transfected cells; host or cells: HEK-293
T2 sequence (P21554 whole entry): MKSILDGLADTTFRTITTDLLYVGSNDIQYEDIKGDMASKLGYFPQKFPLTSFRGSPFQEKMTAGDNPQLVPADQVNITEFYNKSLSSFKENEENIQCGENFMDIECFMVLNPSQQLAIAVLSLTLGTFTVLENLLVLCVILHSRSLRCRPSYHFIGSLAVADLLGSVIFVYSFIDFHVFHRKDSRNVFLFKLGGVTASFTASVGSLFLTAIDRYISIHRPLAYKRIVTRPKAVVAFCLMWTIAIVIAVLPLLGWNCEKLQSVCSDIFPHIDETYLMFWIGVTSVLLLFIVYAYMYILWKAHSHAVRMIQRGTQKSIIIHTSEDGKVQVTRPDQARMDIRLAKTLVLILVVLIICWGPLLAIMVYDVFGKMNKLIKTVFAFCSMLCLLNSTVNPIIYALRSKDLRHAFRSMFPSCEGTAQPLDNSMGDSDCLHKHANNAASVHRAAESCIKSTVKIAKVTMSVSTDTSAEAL
Briefly: Radioligand displacement in human CB1 receptor-transfected cells (HEK-293). As to conditions: for pKi: Ki. Format: binding. Summed up: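 Radioligand displacement was run on HEK-293 cells expressing human CB1, with incubation and separation as for rat brain membranes. IC50 values came from one- or two-site nonlinear regression and were converted to Ki by Cheng-Prusoff.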
Background: In a radioligand displacement assay an active substance lowers the binding of a labelled ligand.

The mark [2] stands for this setting: whole rat brain membranes, effects reported as percent change from basal.
The mark [3] stands for this setting: whole rat brain membranes, read-out: EC50, GTP-γ-[35S] in Whole Rat Brain.
Where [4] appears, read: displacement of 3H-CP55940, human CB1 transfected cells, radioligand 3H-CP55940, Table 3.
Where [5] appears, read: displacement of 3H-SR141716A, human CB1 transfected cells, radioligand 3H-SR141716A, Table 3.
Setting [6] is: displacement of 3H-WIN55212-2, human CB1 transfected cells, radioligand 3H-WIN55212-2, Table 3.
The mark [7] stands for this setting: human CB1 transfected cells, radioligand 3H-CP55940, Table 3.
[8] abbreviates: human CB1 transfected cells, radioligand 3H-SR141716A, Table 3.
Where [9] appears, read: human CB1 transfected cells, radioligand 3H-WIN55212-2, Table 3.

pEC50, pKi: −log10 of the molar value. Like-named read-outs stand apart in the source and are kept apart here.

T1 sequence (P20272 whole entry): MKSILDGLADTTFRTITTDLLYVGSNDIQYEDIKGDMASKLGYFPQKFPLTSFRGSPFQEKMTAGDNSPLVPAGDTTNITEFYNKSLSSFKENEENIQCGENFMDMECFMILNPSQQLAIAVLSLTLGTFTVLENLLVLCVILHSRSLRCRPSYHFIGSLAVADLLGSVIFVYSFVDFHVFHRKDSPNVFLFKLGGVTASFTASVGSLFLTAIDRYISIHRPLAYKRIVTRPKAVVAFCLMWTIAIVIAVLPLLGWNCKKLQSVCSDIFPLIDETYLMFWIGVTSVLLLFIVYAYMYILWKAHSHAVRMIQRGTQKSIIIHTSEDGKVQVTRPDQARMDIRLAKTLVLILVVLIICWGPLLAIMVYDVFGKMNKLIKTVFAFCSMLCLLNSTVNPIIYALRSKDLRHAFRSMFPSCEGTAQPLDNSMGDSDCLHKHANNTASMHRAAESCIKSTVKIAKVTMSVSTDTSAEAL

Take `Cc1c(C(=O)NN2CCOCC2)nn(-c2ccc(Cl)cc2Cl)c1-c1ccc(Cl)cc1` [MF9725-33D]: the Emax in assay [1] (setting [2]) was -76.3%. In assay [1] (setting [3]), the pEC50 was 4.41.

As for `CCCCNC(=O)c1nn(-c2ccc(Cl)cc2Cl)c(-c2ccc(Cl)cc2)c1C` [MF9725-64-17], in assay [1] (setting [2]), the Emax is -38.5%. The pEC50 in assay [1] (setting [3]) is 5.07. Further, the pKi at human CB1 receptor (setting [4]) was 7.55; at human CB1 receptor (setting [5]) it was 8.32; at human CB1 receptor (setting [6]), 7.53. Besides, the “Max. Disp. %, 3H-CP55940” value at human CB1 receptor (setting [7]) came out at 90.2%. The “Max. Disp. %, 3H-SR141716A” value on human CB1 receptor (setting [8]) came to 97.4%. Also, the “Max. Disp. %, 3H-WIN55212-2” value at human CB1 receptor (setting [9]) was 93.2%.

As to `Cc1c(C(=O)NC(C)C)nn(-c2ccc(Cl)cc2Cl)c1-c1ccc(Cl)cc1` [MF9725-65-11], in assay [1] (setting [2]), the Emax is -46.4%. Moreover, the negative-log EC50 (pEC50) in assay [1] (setting [3]) is 4.80. In addition, the pKi is 7.04 on human CB1 receptor (setting [4]), 7.84 on human CB1 receptor (setting [5]) and 6.16 on human CB1 receptor (setting [6]). In addition, the “Max. Disp. %, 3H-CP55940” value at human CB1 receptor (setting [7]) amounted to 85.4%. Besides, at human CB1 receptor (setting [8]), the “Max. Disp. %, 3H-SR141716A” value is recorded as 100%. On human CB1 receptor (setting [9]), the “Max. Disp. %, 3H-WIN55212-2” value came out at 93.6%.

For the compound `Cc1c(C(=O)NC2CCCCC2)nn(-c2ccc(Cl)cc2Cl)c1-c1ccc(Cl)cc1` [MF9725-66-11], the Emax in assay [1] (setting [2]) is -22.1%. Further, the pEC50 in assay [1] (setting [3]) is 4.58. The pKi is 8.15 on human CB1 receptor (setting [4]), 8.99 at human CB1 receptor (setting [5]) and 8.27 at human CB1 receptor (setting [6]). Further, the “Max. Disp. %, 3H-CP55940” value on human CB1 receptor (setting [7]) amounted to 92.3%. In addition, the “Max. Disp. %, 3H-SR141716A” value on human CB1 receptor (setting [8]) came out at 99.9%. Further, the “Max. Disp. %, 3H-WIN55212-2” value at human CB1 receptor (setting [9]) is recorded as 96.8%.

Regarding `Cc1c(C(=O)NCC(C)C)nn(-c2ccc(Cl)cc2Cl)c1-c1ccc(Cl)cc1` [MF9725-68-10], in assay [1] (setting [2]), the Emax was -11%. In assay [1] (setting [3]), the pEC50 was 5.12. Also, the values for the pKi at human CB1 receptor (setting [4]), at human CB1 receptor (setting [5]) and on human CB1 receptor (setting [6]) were 7.03, 7.84 and 6.90, respectively. In addition, at human CB1 receptor (setting [7]), the “Max. Disp. %, 3H-CP55940” value was found to be 70.1%. Also, on human CB1 receptor (setting [8]), the “Max. Disp. %, 3H-SR141716A” value turned out to be 99.5%. Besides, the “Max. Disp. %, 3H-WIN55212-2” value at human CB1 receptor (setting [9]) amounted to 100%.

Take `CCCCCCNC(=O)c1nn(-c2ccc(Cl)cc2Cl)c(-c2ccc(Cl)cc2)c1C` [MF9725-132-25]: in assay [1] (setting [2]), the Emax was -13%. Further, the negative-log EC50 (pEC50) in assay [1] (setting [3]) is 4.53. In addition, the pKi is 6.91 at human CB1 receptor (setting [4]), 7.63 on human CB1 receptor (setting [5]) and 7.07 on human CB1 receptor (setting [6]). Further, the “Max. Disp. %, 3H-CP55940” value at human CB1 receptor (setting [7]) worked out at 85.6%. The “Max. Disp. %, 3H-SR141716A” value on human CB1 receptor (setting [8]) is 75.4%. The “Max. Disp. %, 3H-WIN55212-2” value on human CB1 receptor (setting [9]) turned out to be 52.7%.

In assay [1] (EC50, GTP-γ-[35S] in Whole Rat Brain, whole rat brain membranes), `CCCCCCCNC(=O)c1nn(-c2ccc(Cl)cc2Cl)c(-c2ccc(Cl)cc2)c1C` [MF9725-133-25] had a pEC50 of 3.67. Further, the Emax in assay [1] is -20%. Also, the “Max. Disp. %, 3H-CP55940” value at human CB1 receptor stood at 85.3%. For the same compound, the “Max. Disp. %, 3H-SR141716A” value at human CB1 receptor stood at 67.9%. Further, the “Max. Disp. %, 3H-WIN55212-2” value at human CB1 receptor stood at 53.4%. Also, the values for the pKi on human CB1 receptor (displacement of 3H-CP55940), at human CB1 receptor (displacement of 3H-SR141716A) and on human CB1 receptor (displacement of 3H-WIN55212-2) were 7.54, 8.03 and 6.41, respectively.

What is called Emax is the maximal effect, on the per cent scale that the assay sets. A word on the pEC50: it is the EC50 on a negative log10 scale, so that one unit is a factor of ten. As a reminder, the pKi is −log10 of the Ki, conventionally taken in molar units. A low value points to a large Ki.
